The values that follow come from PubChem BioAssay AID180 (DTP/NCI, 2004).

The experiment has as its system BDF1 mice, Adenocarcinoma 755 s.c., tumor weight T/C. Nature of the experiment: NCI In Vivo Anticancer Drug Screen. Data for tumor model Adenocarcinoma 755 (subcutaneous) in B6D2F1 (BDF1) mice. Conditions: endpoint: mean tumor weight, higher = larger tumour. The procedure, abridged:
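In vivo antitumor screen on a transplantable tumor line. Result equals the measure in compound-treated animals divided by the same measure in vehicle controls.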

Setting [1] is: dose: 12.5 mg/kg/injection, schedule: Q01DX011 (ip), vehicle: methylcellulose (MC).
The mark [2] stands for this setting: dose: 25.0 mg/kg/injection, schedule: Q01DX011 (ip), vehicle: methylcellulose (MC).

Broadly, the T/C is the ratio of treated to control.

The structures appear in SMILES notation. Where “and” joins values, the source holds several entries; their conditions need not be identical. Equal entries are not always repeated.

As for `O=C1NC(=O)C2(CCCc3ccc(N(CCCl)CCCl)cc32)N1` (stereo not drawn), the T/C is 86 % of control (dose: 3.5 mg/kg/injection, schedule: Q01DX011 (ip), vehicle: carboxymethylcellulose (CMC)); 80 % of control (dose: 3.5 mg/kg/injection, schedule: Q01DX011 (ip), vehicle: other); 83 % of control (dose: 7.0 mg/kg/injection, schedule: Q01DX011 (ip), vehicle: carboxymethylcellulose (CMC)); 112 % of control (dose: 7.0 mg/kg/injection, schedule: Q01DX011 (ip), vehicle: other); 56 % of control (dose: 14.0 mg/kg/injection, schedule: Q01DX011 (ip), vehicle: carboxymethylcellulose (CMC)); 51 % of control (dose: 14.0 mg/kg/injection, schedule: Q01DX011 (ip), vehicle: other). Further, the T/C (dose: 28.0 mg/kg/injection, schedule: Q01DX011 (ip), vehicle: carboxymethylcellulose (CMC)) is 30 % of control; the T/C (dose: 28.0 mg/kg/injection, schedule: Q01DX011 (ip), vehicle: other) is 56 % of control; the T/C (dose: 55.0 mg/kg/injection, schedule: Q01DX011 (ip), vehicle: carboxymethylcellulose (CMC)) was 2 % of control; the T/C (dose: 55.0 mg/kg/injection, schedule: Q01DX011 (ip), vehicle: other) is 13 % of control.
Consider `Cc1ccc(N2CCN(CCCN3CCN(c4ccc(Cl)cc4)CC3)CC2)cc1`, for which the T/C (dose: 0.05 mg/kg/injection, schedule: Q01DX011 (ip), vehicle: carboxymethylcellulose (CMC)) is 100 % of control; the T/C (dose: 0.09 mg/kg/injection, schedule: Q01DX011 (ip), vehicle: carboxymethylcellulose (CMC)) is 66 % of control; the T/C (dose: 0.18 mg/kg/injection, schedule: Q01DX011 (ip), vehicle: carboxymethylcellulose (CMC)) is 116 % of control; the T/C (dose: 0.37 mg/kg/injection, schedule: Q01DX011 (ip), vehicle: carboxymethylcellulose (CMC)) was 104 % of control; the T/C (dose: 0.75 mg/kg/injection, schedule: Q01DX011 (ip), vehicle: methylcellulose (MC)) was 38 % of control; the T/C (dose: 1.5 mg/kg/injection, schedule: Q01DX011 (ip), vehicle: methylcellulose (MC)) was 37 % of control. The T/C under setting [1] was 76 % of control; the T/C under setting [2] is 48 % of control; the T/C (dose: 50.0 mg/kg/injection, schedule: Q01DX011 (ip), vehicle: methylcellulose (MC)) is 42 % of control and 46 % of control.
For the compound `CCCCn1cnc2c(SCc3cccc(F)c3)nc(N)nc21`, the T/C reads like this: (dose: 3.1 mg/kg/injection, schedule: Q01DX011 (ip), vehicle: methylcellulose (MC)) 50 % of control; (dose: 6.25 mg/kg/injection, schedule: Q01DX011 (ip), vehicle: methylcellulose (MC)) 61 % of control; under setting [1], 23 % of control; under setting [2], 1 % of control and 8 % of control.
Regarding `C[C@]12C[C@H](O)[C@H]3[C@@H](CCC4=CC(=O)CC[C@@]43C)[C@@H]1CC[C@@H]2C(=O)CO`, the T/C (dose: 10.0 mg/kg/injection, schedule: Q01DX011 (ip), vehicle: steriod suspending solution) was 110 % of control; the T/C (dose: 10.0 mg/kg/injection, schedule: Q01DX011 (sc), vehicle: steriod suspending solution) is 79 % of control; the T/C (dose: 20.0 mg/kg/injection, schedule: Q01DX011 (ip), vehicle: steriod suspending solution) was 103 % of control; the T/C (dose: 20.0 mg/kg/injection, schedule: Q01DX011 (sc), vehicle: steriod suspending solution) is 84 % of control; the T/C (dose: 40.0 mg/kg/injection, schedule: Q01DX011 (im), vehicle: steriod suspending solution) was 67 % of control; the T/C (dose: 40.0 mg/kg/injection, schedule: Q01DX011 (ip), vehicle: steriod suspending solution) is 81 % of control. Moreover, the T/C is, setting by setting: (dose: 40.0 mg/kg/injection, schedule: Q01DX011 (iv), vehicle: steriod suspending solution) 87 % of control; (dose: 40.0 mg/kg/injection, schedule: Q01DX011 (sc), vehicle: steriod suspending solution) 64 % of control; (dose: 50.0 mg/kg/injection, schedule: Q#A X022 (sc), vehicle: steriod suspending solution) 20 % of control; (dose: 80.0 mg/kg/injection, schedule: Q01DX011 (im), vehicle: steriod suspending solution) 49 % of control; (dose: 80.0 mg/kg/injection, schedule: Q01DX011 (ip), vehicle: steriod suspending solution) 95 % of control; (dose: 80.0 mg/kg/injection, schedule: Q01DX011 (iv), vehicle: steriod suspending solution) 64 % of control. The T/C (dose: 80.0 mg/kg/injection, schedule: Q01DX011 (oral), vehicle: steriod suspending solution) is 58 % of control; the T/C (dose: 80.0 mg/kg/injection, schedule: Q01DX011 (sc), vehicle: steriod suspending solution) was 51 % of control; the T/C (dose: 100.0 mg/kg/injection, schedule: Q01DX011 (oral), vehicle: steriod suspending solution) was 38 % of control; the T/C (dose: 100.0 mg/kg/injection, schedule: Q#A X022 (sc), vehicle: steriod suspending solution) was 8 % of control; the T/C (dose: 150.0 mg/kg/injection, schedule: Q03DX004 (sc), vehicle: steriod suspending solution) was 51 % of control; the T/C (dose: 160.0 mg/kg/injection, schedule: Q01DX011 (im), vehicle: steriod suspending solution) is 30 % of control. The T/C is 72 % of control (dose: 160.0 mg/kg/injection, schedule: Q01DX011 (ip), vehicle: steriod suspending solution); 42 % of control (dose: 160.0 mg/kg/injection, schedule: Q01DX011 (iv), vehicle: steriod suspending solution); 31 % of control (dose: 160.0 mg/kg/injection, schedule: Q01DX011 (sc), vehicle: steriod suspending solution); 104 % of control (dose: 175.0 mg/kg/injection, schedule: Q07DX002 (sc), vehicle: steriod suspending solution); 24 % of control (dose: 300.0 mg/kg/injection, schedule: Q03DX004 (sc), vehicle: steriod suspending solution); 22 % of control (dose: 320.0 mg/kg/injection, schedule: Q01DX011 (im), vehicle: steriod suspending solution). Moreover, the T/C was 42 % of control (dose: 320.0 mg/kg/injection, schedule: Q01DX011 (ip), vehicle: steriod suspending solution); 38 % of control (dose: 320.0 mg/kg/injection, schedule: Q01DX011 (oral), vehicle: steriod suspending solution); 16 % of control (dose: 320.0 mg/kg/injection, schedule: Q01DX011 (sc), vehicle: steriod suspending solution); 58 % of control (dose: 350.0 mg/kg/injection, schedule: Q07DX002 (sc), vehicle: steriod suspending solution); 22 % of control (dose: 400.0 mg/kg/injection, schedule: Q01DX011 (oral), vehicle: steriod suspending solution); 9 % of control (dose: 600.0 mg/kg/injection, schedule: Q03DX004 (sc), vehicle: steriod suspending solution). Further, the T/C is 17 % of control and 18 % of control (dose: 640.0 mg/kg/injection, schedule: Q01DX011 (oral), vehicle: steriod suspending solution); 20 % of control (dose: 700.0 mg/kg/injection, schedule: Q07DX002 (sc), vehicle: steriod suspending solution); 5 % of control (dose: 1200.0 mg/kg/injection, schedule: Q03DX004 (sc), vehicle: steriod suspending solution); 16 % of control (dose: 1400.0 mg/kg/injection, schedule: Q07DX002 (sc), vehicle: steriod suspending solution).
Regarding `CNc1ncnc2c1cnn2C`, the T/C (dose: 5.0 mg/kg/injection, schedule: Q01DX011 (ip), vehicle: methylcellulose (MC)) is 65 % of control; the T/C (dose: 10.0 mg/kg/injection, schedule: Q01DX011 (ip), vehicle: methylcellulose (MC)) is 55 % of control; the T/C (dose: 20.0 mg/kg/injection, schedule: Q01DX011 (ip), vehicle: methylcellulose (MC)) is 29 % of control.
Regarding `Nc1nc(Cl)nc2c1ncn2C1OC(CO)C(O)C1O` (stereo not drawn), the T/C (dose: 0.05 mg/kg/injection, schedule: Q01DX011 (ip), vehicle: methylcellulose (MC)) is 59 % of control; the T/C (dose: 0.1 mg/kg/injection, schedule: Q01DX011 (ip), vehicle: methylcellulose (MC)) was 84 % of control; the T/C (dose: 0.2 mg/kg/injection, schedule: Q01DX011 (ip), vehicle: methylcellulose (MC)) is 48 % of control.
